Our source for the Mortality values is US9321735B2, “Insecticidal triazines and pyrimidines” (Vestaron Corporation, priority 2010, dated 2016).

Structures are written as SMILES.

This data set deals with beet army worm (Spodoptera exigua). The experiment in a line: Insecticidal test for beet armyworm (diet surface treatment, larval mortality). In kind it is in vivo. The note with it: 100 μg/cm^2 on diet surface; first instar larvae, 32 insects per treatment; observations 24, 48 and 96 hours after treatment. The procedure: The compounds identified in Table 8 were prepared according to the previous methods and were tested against beet armyworm and corn earworm as follows:
Insecticidal Test for Beet Armyworm (Spodoptera Exigua).
To prepare the test solution, the test compound was Formulated at 3499 ppm in solution as 5 mg compound/1.429 mL of 9 parts acetone: 1 part deionized H2O and vortexed to homogenize. 50 μL of the 3499 ppm (equivalent to 100 μg/cm^2 dose on diet surface area) test solution was pipetted upon the surface of 1 mL of solidified cool Southland Products Incorporated Beet Armyworm Diet (201 Stuart Island Road Lake Village, Ark. 71653) using an Eppendorf Repeater Plus with a 1 mL pipette tip. All pipetting of treatments was done in a Labconco Hood. Thirty minutes were allowed for the acetone to evaporate leaving a dose of 100 μg/cm^2 on the surface of the artificial diet. Two 24 hour old first instar Beet Armyworm(Spodoptera Exigua) larvae were placed in each well of the 128 well Bio-BA 128 Bioassay trays (CD International, Pitman, N.J., 08071, USA) using a #0 fine camel hair paint brush. Bioassay trays were sectioned into treatment groups of 8 with 16 replicates per treatment group (32 insects per treatment). […] The number of insects dead were counted out of the 32 insects total per treatment and the results are given in a table as a percent mortality at a dose of 100 μg/cm^2. […]

As for `Fc1cccc(Cl)c1-c1nc(NN=Cc2ccc(C(F)(F)F)cc2)nc(Nc2ccc(Cl)nc2)n1` [Example 51, 4-(2-chloro-6-fluorophenyl)-N-(6-chloropyridin-3-yl)-6-(2-(4-(trifluoromethyl)benzylidene)hydrazinyl)-1,3,5-triazin-2-amine], the Mortality entry is on record as “A (A=76-100% mortality)”.
